Read-outs that look alike come from different tables or passages of the source.
How the values were obtained:
[1] = test system: insulin secretion; experiment: Glucose-stimulated insulin secretion in plasma of HFD mice; assay type: in vivo; conditions: 21 weeks HFD
Experimental: (§1) Mice were fasted for 6 h prior to glucose tolerance tests (GTT). Baseline glucose levels at 0 min timepoint (fasting glucose, FG) were measured from blood sample collected from tail snipping using glucometer (Bayer Healthcare LLC). Either 1 g or 0.75 g D-Glucose/kg body weight were injected (i.p.) for lean or HFD mice, respectively and glucose levels were measured at 7, 15, 30, 60, 90 and 120 min timepoints after injection. For insulin tolerance tests (ITTs), the mice were fasted for 4 h. Similar to GTTs, the baseline blood glucose levels were measured at 0 min timepoint and 15, 30, 60, 90 and 120 min timepoints post-injection (i.p.) of insulin (HumulinR, 1 U/kg body weight for lean mice or 1.25 U/kg body weight for HFD mice). […] The collected plasma was then measured for insulin content by using Ultra-Sensitive Mouse Insulin ELISA Kit (Crystal Chem, #90080). All mice and treatment groups were assessed blindly while performing experiments.

[2] = test system: human Kv; conditions: cited from earlier work
[3] = target: T1, SWELL1 protein (Mus musculus, UniProt Q80WG5); experiment: SWELL1 protein expression in adipose tissue of treated T2D mice; assay type: in vivo; set-up: western blots detecting SWELL1 protein in visceral fat of C57BL/6 mice on high-fat diet; from tissue; host or cells: visceral / inguinal adipose tissue of C57BL/6 HFD and KKAy mice; conditions: 5 mg/kg i.p.
Experimental: (§2) All compounds were dissolved in Kolliphor® EL (Sigma, #C5135).
(SEQ ID NO: 13) (Pacific Antibodies).

[4] = test system: SWELL1, LRRC8b, LRRC8c, LRRC8d, LRRC8e mRNA; assay type: cell-based; conditions: 3T3-F442A preadipocytes, 10 μM 96 h
Experimental: Data are represented as mean±SEM. Two-tailed unpaired t-test was used where *, ** and *** represents p<0.05, p<0.01 and p<0.001 respectively.
The cDNA synthesis, qRT-PCR reaction and quantification were carried out as described previously (Zhang et al., 2017).

[5] = test system: cytochrome p450 isoenzyme; experiment: Cytochrome P450 inhibition assay, overall statement; assay type: in vitro ADME, Human; conditions: in words
[6] = test system: HFD-T2D mice, NAFLD; experiment: Liver mass, triglycerides and NAFLD histology in HFD mice; assay type: in vivo; conditions: vs vehicle
Experimental: Gross liver weights were measured and identical sections from right medial lobe of liver were dissected for further examinations. Total triglyceride content was determined by homogenizing 10-50 mg of tissue in 1.5 ml of chloroform:methanol (2:1 v/v) and centrifuged at 12000 rpm for 10 mins at 4° C. An aliquot, 20 ul, was evaporated in a 1.5 ml microcentrifuge tube for 30 mins. Triglyceride content was determined by adding 100 μl of Infinity Triglyceride Reagent (Fisher Scientific) to the dried sample followed by 30 min incubation at RT. The samples were then transferred to a 96 well plate along with standards (0-2000 mg/di) and absorbance was measured at 540 nm and the final concentration was determined by normalizing to tissue weight. For histological examination, liver sections were fixed in 10% zinc formalin and paraffin embedded for sectioning. Hematoxylin and eosin (H&E) stained sections were then assessed for steatosis grade, lobular inflammation and hepatocyte ballooning for non-alcoholic fatty liver disease (NAFLD) scoring as described (Kleiner et al., 2005; Liang et al., 2014; Rauckhorst et al., 2017).
Nonalcoholic fatty liver disease (NAFLD), like T2D, is associated with insulin resistance. NASH is an advanced form of nonalcoholic liver disease defined by three histological features: hepatic steatosis, hepatic lobular inflammation, hepatocyte damage (ballooning) and can be present without or without fibrosis. NAFLD and T2D likely share at least some pathophysiologic mechanisms because more than one-third of patients (37%) with T2D have NASH and almost one-half of patients with NASH (44%) have T2D. […] This improved metabolic state can reduce ectopic lipid deposition and NAFLD that is associated with obesity and T2D.

[7] = test system: polygenic T2D KKAy mice; experiment: Metabolic phenotyping (fasting glucose, GTT, ITT) in polygenic T2D KKAy mice; assay type: in vivo; conditions: polygenic T2D KKAy model, 5 mg/kg i.p. 4 days
Excerpt: All C57BL/6 mice involved in study were purchased from Charles River Labs. Both KK.Cg-Ay/J (KKN) and KK.Cg-Aa/J (KKAa) mice involved in study were gender and age-matched mice obtained from Jackson Labs (Stock No: 002468) and bred up for experiments. The mice were fed ad libitum with either regular chow (RC) or high-fat diet (Research Diets, Inc., 60 kcal % fat) with free access to water and housed in a light-, temperature- and humidity-controlled room. For high-fat diet (HFD) studies, only male mice were used and were started on HFD regimen at the age of 6-9 weeks. For all experiments involving KKN and KKAa mice, both males and females were used at approximately 50/50 ratio. In all experiments involving mice, investigators were kept blinded both during the experiments and subsequent analysis.
as §2, §1

[8] = test system: insulin-AKT2-AS160 signaling (pAKT2, pAS160); experiment: Insulin-stimulated AKT2-AS160 signaling western blot in 3T3-F442A cells
[9] = target: VRAC/ICl,SWELL (Homo sapiens, UniProt Q8IWT6); conditions: selective VRAC/ICl,SWELL inhibitor; cited from earlier work
[10] = target: T1, SWELL1 protein; conditions: for SWELL1 protein expression: applied for 96 hours (10 μM)
[11] = Tolerability of chronic daily i.p. injection; assay type: in vivo, mice; conditions: daily i.p. injections for up to 8 weeks
Experimental: as §2

[12] = test system: delayed rectifier channels; conditions: cited from earlier work
[13] = target: T2, R103E mutant SWELL1 (Homo sapiens, UniProt Q8IWT6, R103E); experiment: ICl,SWELL inhibition in R103E mutant SWELL1 overexpressing HEK-293 cells; assay type: cell-based; conditions: R103E expressing HEK cells, 10 and 7 μM
T2 construct: expressed in transfected cells; host or cells: HEK-293

[14] = HFD 16 weeks then intermittent dosing over 5 weeks

CCCCC1(C2CCCC2)Cc2cc(OCCCC(=O)O)c(Cl)c(Cl)c2C1=O (stereo not shown) [SN-401, 4-((2-butyl-6,7-dichloro-2-cyclopentyl-1-oxo-2,3-dihydro-1H-inden-5-yl)oxy)butanoic acid]
Glucose-stimulated insulin secretion (GSIS), serum insulin measurements [1]: significantly improved
Effect on human Kv channels [2]: no effect
SWELL1 expression in adipose tissue ([3]; HFD-fed T2D mice): 2.3 fold
SWELL1 expression in adipose tissue ([3]; T2D KKAy mice, compared to non-T2D C57/B6 and KKAa): increases
SWELL1, LRRC8b, LRRC8c, LRRC8d or LRRC8e mRNA expression [4]: not associated with increases
Cytochrome p450 isoenzyme inhibition [5]: minimal
Absolute and body mass-normalized liver mass [6, 14]: reduced
Hepatic triglyceride concentration [6, 14]: lower
Hepatic steatosis (histologic evaluation) ([6]; HFD mice): significantly reduced
Hepatocyte damage (histologic evaluation) ([6]; HFD mice): significantly reduced
Improvement of NAFLD activity score (NAS) ([6]; HFD mice): > 2 points
Fasting blood glucose (FG) [7]: normalized
Glucose tolerance (GTT) [7]: normalized
Insulin-tolerance (ITT) [7]: markedly improved
Insulin-pAKT2 signaling ([8]; 3T3-F442A adipocytes, 1 μM 96 hours followed by washout, vs vehicle): robustly increases
Effects on insulin-AKT2-AS160 signaling in SWELL1 KO cells ([8]; SWELL1 KO 3T3-F442A adipocytes): absent
Insulin-stimulated levels of pAS160 ([8]; WT 3T3-F442A adipocytes, 10 μM 96 h): enhanced
Insulin-stimulated levels of pAKT2 ([8]; WT 3T3-F442A, 10 μM 96 h): enhanced
IC50 [9]: ~5 µM
EC50 [10]: < 1000 nM
SWELL1 protein expression ([10]; 3T3-F442A adipocytes): 1.5 fold control expression
SWELL1 protein expression ([10]; 3T3-F442A preadipocytes): 3 fold control expression
Signs of toxicity [11]: no overt signs of toxicity
Effect on delayed rectifier channels [12]: no effect

CCCCC1(C2CCCC2)Cc2cc(OCCCCCC(=O)O)c(Cl)c(Cl)c2C1=O (stereo not shown) [SN-406, 6-((2-butyl-6,7-dichloro-2-cyclopentyl-1-oxo-2,3-dihydro-1H-inden-5-yl)oxy)hexanoic acid]
ICl,SWELL inhibition in R103E mutant vs WT [13]: reduced

From patent publication US20220242812A1, “SWELL1-LRRC8 COMPLEX MODULATORS” (Washington University, priority 2019, published 2022)
